Laboratory results taken from patent publication US20130324508A1, “BIOMARKER FOR PROSTATE CANCER AND METHOD OF USING THE SAME” (UNIVERSITY OF TENNESSEE RESEARCH FOUNDATION, priority 2012, published 2013).

How the values were obtained:
[1] = tested on: PC-3; assay: ERK activation in PC-3 prostate cancer cells (Western blot); assay type: cell-based, human; conditions: for OC and testosterone stimulated phospho-ERK activity: PC-3 transfected with siRNA, FIG. 5B; for phospho-ERK: PC-3 (androgen receptor negative), calcium 10 mM, zinc 0.2 mM, OC 20 ng/ml, arginine 20 mM, testosterone-BSA 60 nM, 5 min, FIG. 2B
Experimental: (§1) Briefly, human prostate cancer cells and the cells transfected with GPRC6A will be made quiescent by overnight incubation in serum-free DMEM/F12 containing 0.1% BSA and stimulated with various ligands at different doses. ERK activation will be assessed 5 to 30 minutes after treatment by immunoblotting using anti-phospho-ERK1/2 MAP kinase antibody (Cell Signaling Technology) corrected for the amount of ERK using an anti-ERK1/2 MAP Kinase antibody (Cell Signaling Technology) to measure ERK levels.
(§2) Referring to FIG. 2. […] Here, calcium (1-20 mM), zinc (0.2-0.8 mM), OC (5-60 ng/ml), arginine (5-30 mM), and testosterone-BSA (5-100 nM) are confirmed to be functional ligands for GPRC6A (16-17, 19). […] Calcium (10 mM), zinc (0.2 mM), OC (20 ng/ml), arginine (20 mM), and testosterone-BSA (60 nM) increased phospho-ERK in both of these cells. The HEK cells transfected with GPRC6A or without the plasmid cDNA of GPRC6A or 22Rv1 or PC-3 were incubated in Dulbecco's modified Eagle's medium/F-12 containing 0.1% bovine serum albumin quiescence media and exposed to the extracellular calcium, OC, arginine, or testosterone-BSA at indicated concentrations for 5 min, and ERK activation was determined as described under Materials and Methods. Representative blots are shown, and the results were verified in at least three independent experiments.
(§3) To confirm the importance of GPRC6A signaling in prostate cancer cell line, the response to GPRC6A ligands was accessed after knock-down of GPRC6A using siRNA. For these studies, ERK activity was assessed in 22Rv1 and PC-3 cells stably transfected with GPRC6A siRNA-202 and siRNA-514. These responses were compared control groups consisting of mock-transfected cells and transfected cells with a random negative control siRNA plasmid.

[2] = tested on: GPRC6A; assay: siRNA suppression of GPRC6A gene expression (RT-PCR); assay type: cell-based, human; conditions: compared to controls, FIG. 5A
Description: For GPRC6A knockdown experiments, two short interfering RNAs (siRNAs) (19 nucleotides each) have been designed from the hGPRC6A sequence (NM_148963) (SEQ ID NO: 9). These are GPRC6A siRNA-202: CCAGGAGTGTGTTGGCTTT (SEQ ID NO: 10) and siRNA-514: GCCACAGGTGGGTTATGAA (SEQ ID NO: 11). Two siRNA hairpins were synthesized and cloned into a pSilencer™ 4.1-CMV neo vector (Ambion). A circular pSilencer™ 4.1-CMV neo vector that expresses a hairpin siRNA with limited homology to any known sequence was used as a negative control. The constructs of siRNA duplexes have been stably transfected into human prostate cancer cells using Lipofectamine™ (Invitrogen) and were selected by G418 (Invitrogen). Successful knock down of GPRC6A will be confirmed by assessing RT-PCR analysis of GPRC6A expression.
as §3

[3] = tested on: 22Rv1; assay: ERK activation in 22Rv1 prostate cancer cells (Western blot); assay type: cell-based, human; conditions: for OC and testosterone stimulated phospho-ERK activity: FIG. 5B; for phospho-ERK: 22Rv1 (androgen receptor positive), calcium 10 mM, zinc 0.2 mM, OC 20 ng/ml, arginine 20 mM, testosterone-BSA 60 nM, 5 min, FIG. 2B
Experimental: as §1, §2, §3

[4] = tested on: PC-3; assay: PSA and Runx 2II gene expression in PC-3 cells (real time RT-PCR); assay type: cell-based, human; conditions: 8 hours stimulation; for PSA gene expression: FIG. 4C; for Runx 2II gene expression: FIG. 4D
Experimental: (§4) Human tissue cDNAs were obtained from Clontech Laboratories, Inc. Total RNA from human prostate cancer cells was isolated with RNeasy Mini Kit (Qiagen Inc., Valencia, Calif.). RT-PCR was done using two-step RNA PCR (Perkin-Elmer). In separate reactions, 2.0 μg of DNase-treated total RNA was reverse-transcribed into cDNA with the respective reverse primers specified below and Moloney murine leukemia virus reverse transcriptase (Gibco Life Technologies, Inc.). Reactions were carried out at 42° C. for 60 min followed by 94° C. for 5 min and 5° C. for 5 min. The products of first-strand cDNA synthesis were directly amplified by PCR using AmpliTaq DNA polymerase (Perkin-Elmer). The primers for human GPRC6A are as follows: hGPRC6A.F203: […] (SEQ ID NO: 1) and hGPRC6A.R630: […] (SEQ ID NO: 2). For housekeeping gene control G3PDH gene, G3PDH.F143: […] (SEQ ID NO: 3) and G3PDH.R1050: […] (SEQ ID NO: 4). For quantitative real time RT-PCR assessment of PSA and Runx 2II genes expression, total RNA was isolated and reverse transcribed from 22Rv1 cells that stimulated with or without OC (80 ng/ml), arginine (30 mM) and R1881 (100 nM) as previously described using specific primer sets. The primers sequences were PSA. For: […] (SEQ ID NO: 5) and PSA.Rev: […] (SEQ ID NO: 6); Runx 2. For: […] (SEQ ID NO: 7) and Runx 2. Rev: […] (SEQ ID NO: 8), and the threshold cycle (Ct) of tested-gene product from the indicated genotype was normalized to the Ct for cyclophilin A as previously described (18).
(§5) After 8 hours stimulation, OC, arginine and R1881 stimulated PSA and Runx 2II gene expression in human prostate cancer 22Rv1 (FIG. 4A and FIG. 4B) and PC-3 cells (FIG. 4C and FIG. 4D). * indicates a significant difference from control and stimulation at p<0.05 respectively.

[5] = tested on: 22Rv1; assay: PSA and Runx 2II gene expression in 22Rv1 cells (real time RT-PCR); assay type: cell-based, human; conditions: for PSA gene expression / Runx 2II gene expression: 22Rv1, 8 hours stimulation, OC 80 ng/ml, arginine 30 mM, R1881 100 nM; for PSA gene expression: FIG. 4A; for Runx 2II gene expression: FIG. 4B
Experimental: as §4, §5
To investigate whether the observed ligand-induced PSA and Runx2 gene expression in the prostate cancer cells is due to simulation of GPRC6A, the response to GPRC6A ligands was examined after knock-down of GPRC6A. ERK activity was assessed in 22Rv1 stably transfected with GPRC6A siRNA-514 and compared this response to transfected cells with a random negative control siRNA plasmid, which were used as controls.

[6] = tested on: non-transfected HEK-293 cells; assay: ERK activation in non-transfected HEK-293 cells (Western blot); assay type: cell-based; conditions: same ligand concentrations, 5 min
Experimental: as §1, §2

[7] = tested on: GPRC6A; assay: ERK activation in HEK-293 cells transfected with GPRC6A (Western blot); assay type: cell-based; conditions: HEK-293 overexpressing GPRC6A; 5 min; calcium 1-20 mM, zinc 0.2-0.8 mM, OC 5-60 ng/ml, arginine 5-30 mM, testosterone-BSA 5-100 nM; FIG. 2A
Experimental: as §1, §2

[8] = tested on: 22Rv1; assay: Chemotaxis assay of 22Rv1 cells; assay type: cell-based, human; conditions: migration toward calcium or OC, various concentrations; FIG. 6C
Experimental: The migration of 22Rv1 cells stably expressing negative control siRNA and human GPRC6A-specific siRNA using a previously described chemotaxis assay (22). The migration index was calculated, and was defined as number of cells crossing the filter toward calcium or OC (various concentrations)/number of cells migrating toward medium alone (control). Each experiment was performed at least three times, in duplicate.
Now referring to FIG. 6. To assess whether GPRC6A mediates prostate cancer cells chemotaxis and metastases, the ability of calcium and OC to evoke chemotaxis of human prostate cancer cell 22Rv1 expressing GPRC6A was examined. The ligands of GPRC6A, OC, arginine and R1881 stimulated gene expression of PSA (FIG. A) and Runx2 (FIG. B) were attenuated by GPRC6A siRNA in 22Rv1, human prostate cancer cells. […] The experiments were described in Materials and methods. In all of the above studies, values for relative cell proliferation (expressed as percent of control) represent the mean±SEM of a minimum of three separate experiments.

[9] = tested on: 22Rv1 or PC-3; assay: Cell proliferation by hemocytometer cell count; assay type: cell-based, human; conditions: 22Rv1 or PC-3, 72 h culture, versus control without added ligand; FIG. 3
Experimental: The prostate cancer cell lines 22Rv1, PC-3 and LNcaP and the prostate cell lined RWPE-1 derived from normal prostate were obtained from the American Type Culture Collection (Manassas, Va.). The prostate cells were maintained in RPMI 1640 supplemented with 10% fetal bovine serum (Gibco Life Technologies, Inc.). Cells (10^3 cells/well) were cultured in triplicate in a 96-well flat-bottomed microculture dish using RPMI 1640 containing 10% CFBS in the presence and absence of various concentrations of GPRC6A ligands, including: calcium, amino acids, calcimimetic and OC for 72 h. Cell proliferation was determined by counting cells with a hemocytometer (21).
Now referring to FIG. 3. To determine if GPRC6A ligands enhance prostate cell growth, changes were accessed in cell numbers in 22Rv1 and PC-3 cells exposed to different concentrations of extracellular calcium or OC over a three-day culture period. […] Cell proliferation was determined by counting cells in a hemocytometer method as described in Materials and methods. In all of the above studies, values for relative cell proliferation (expressed as percent of control) represent the mean±SEM of a minimum of three separate experiments. * indicates a significant difference from control and stimulation at p<0.05, respectively.

[10] = 22Rv1 stably transfected with siRNA
[11] = PC-3 stably transfected with siRNA

Compound | OC and testosterone stimulated phospho-ERK activity [1] | mRNA expression of GPRC6A [2, 10] | mRNA expression of GPRC6A [2, 11] | OC and testosterone stimulated phospho-ERK activity ([3]; 22Rv1 transfected with siRNA) | PSA gene expression [4] | Runx 2II gene expression [4] | phospho-ERK [1] | PSA gene expression [5] | Runx 2II gene expression [5] | phospho-ERK [3] | ERK response [6] | stimulation of ERK activity [7] | other results
GPRC6A siRNA-202: siRNA, 19 nucleotides, CCAGGAGTGTGTTGGCTTT (SEQ ID NO: 10), hairpin cloned into pSilencer 4.1-CMV neo vector | significantly decreased | Decreased | Decreased | significantly decreased |  |  |  |  |  |  |  |  | ERK phosphorylation by extracellular calcium, testosterone, arginine and OC ([3]; 22Rv1 transfected with siRNA, FIG. 5C): failed to stimulate
N=C(N)NCCC[C@H](N)C(=O)O [arginine, L-Arginine] |  |  |  |  | stimulated | stimulated | increased | stimulated | stimulated | increased | failed to respond | dose-dependent stimulation | 
C[C@]1(O)CC[C@H]2[C@@H]3CCC4=CC(=O)CCC4=C3C=C[C@@]21C [R1881, Methytrienolone] |  |  |  |  | stimulated | stimulated |  | stimulated | stimulated |  |  |  | 
[Ca+2].[Cl-].[Cl-] [calcium, calcium chloride] |  |  |  |  |  |  | increased |  |  | increased | failed to respond | dose-dependent stimulation | chemotaxis of 22Rv1 prostate cancer cells [8]: induced the chemotaxis; increase in cell number [9]: ~30%
siRNA-514: siRNA, 19 nucleotides, GCCACAGGTGGGTTATGAA (SEQ ID NO: 11), hairpin cloned into pSilencer 4.1-CMV neo vector | significantly decreased | Decreased | Decreased | significantly decreased |  |  |  |  |  |  |  |  | ligand-induced mRNA expression of PSA ([5]; 22Rv1 stably transfected with siRNA versus negative control siRNA, FIG. 6A): Significantly decreased; ligand-induced mRNA expression of Runx2 ([5]; 22Rv1 stably transfected with siRNA versus negative control siRNA, FIG. 6B): Significantly decreased
[Cl-].[Cl-].[Zn+2] [zinc, zinc chloride] |  |  |  |  |  |  | increased |  |  | increased | failed to respond | dose-dependent stimulation | 
